Biological target: T1, ERβ (Homo sapiens, UniProt Q92731)
Experiment: Radioligand competitive binding assay with [3H]E2 for ERβ (GST-ERβ-LBD)
Set-up: made in house; host or cells: Escherichia coli BL21α
Conditions: ERβ versus ERα IC50
Method: Human ERβ cDNA was obtained from OriGene Technologies. The cDNA of ERβ-LBD was amplified using PCR and subcloned into a pGEX-6p-1 expression vector. The expression of GST-fused ERβ-LBD was induced by 1 mM IPTG in Escherichia coli BL21α at 16 °C for overnight. The resulting crude protein was affinity-purified using Glutathione-Sepharose 4B (Cytiva), followed by gel filtration using a Sephadex G-10 column (Cytiva).
Target sequence in this assay (Q92731 263-530): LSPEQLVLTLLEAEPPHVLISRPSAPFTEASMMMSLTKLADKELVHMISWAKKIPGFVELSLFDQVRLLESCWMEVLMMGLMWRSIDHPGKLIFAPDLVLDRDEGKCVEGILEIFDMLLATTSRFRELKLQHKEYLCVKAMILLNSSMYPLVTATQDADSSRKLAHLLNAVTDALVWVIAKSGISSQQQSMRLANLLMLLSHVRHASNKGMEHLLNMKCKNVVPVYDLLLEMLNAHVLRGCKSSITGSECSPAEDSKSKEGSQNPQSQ

SMILES | preference of binding ERβ over ERα
Oc1ccc(C(c2ccc(O)cc2)C(Cl)(Cl)Cl)cc1 [Compound 3, 2,2-bis(p-hydroxyphenyl)-1,1,1-trichloroethane] | three times stronger binding to ERβ than ERα
Oc1ccc(C(c2ccc(O)cc2)(C(F)(F)F)C(F)(F)F)cc1 [Compound 4, 4,4'-(perfluoropropane-2,2-diyl)diphenol] | three times stronger binding to ERβ than ERα

Same assay, conditions: competitive binding, [3H] 17β-estradiol as radioligand; mean ± SD; read-out: Binding affinity (IC50, nM) ERβ

IC50 | SMILES
41.5 ± 2 nM | Cc1cc(C(c2ccccc2O)c2cc(C)c(O)c(C)c2C)c(C)c(C)c1O [Compound 7, 4,4′-(2-Hydroxybenzylidene)-bis(2,3,6-trimethylphenol)]
132 ± 6.5 nM | Cc1cc(C2(c3ccc(O)c(C)c3)CCCCC2)ccc1O [Compound 9, 1,1-Bis(4-hydroxy-3-methylphenyl)cyclohexane]
> 10000 nM | Cc1cc(C(C)(C)c2ccc(C(C)(C)c3cc(C)c(O)c(C)c3)cc2)cc(C)c1O [Compound 20, α,α′-Bis(4-hydroxy-3,5-dimethylphenyl)-1,4-diisopropylbenzene]
224 ± 113 nM | Nc1cc(C(c2ccc(O)c(N)c2)(C(F)(F)F)C(F)(F)F)ccc1O [Compound 13, 2,2-Bis(3-amino-4-hydroxyphenyl)hexafluoropropane]
25.9 ± 8.5 nM | CCCCC(CC)C(c1ccc(O)cc1)c1ccc(O)cc1 (centres unmarked) [Compound 6, 4,4′-(2-Ethylhexylidene)bisphenol]

Biological target: T1, ERβ
Experiment: Luciferase reporter gene assay in HeLa cells, antagonistic activity against 10 nM E2
Assay type: cell-based
Set-up: expressed in transfected cells; host or cells: HeLa
Conditions: HeLa cells; in the presence of 10 nM E2; 0.1, 1, 10 µM tested
Method: (§1) HeLa cells were maintained in Eagle's minimum essential medium (Nissui Pharmaceutical Co, Ltd) supplemented with DCC-treated fetal bovine serum (10%, v/v) at 37 °C under 5% CO2. […] After a 24-h incubation, luciferase activity was measured using the ONE-Glo Luciferase Assay System (Promega Co) on an EnSpire multimode plate reader (PerkinElmer, Inc).
Target sequence in this assay (Q92731 whole entry, the tested form may be a part): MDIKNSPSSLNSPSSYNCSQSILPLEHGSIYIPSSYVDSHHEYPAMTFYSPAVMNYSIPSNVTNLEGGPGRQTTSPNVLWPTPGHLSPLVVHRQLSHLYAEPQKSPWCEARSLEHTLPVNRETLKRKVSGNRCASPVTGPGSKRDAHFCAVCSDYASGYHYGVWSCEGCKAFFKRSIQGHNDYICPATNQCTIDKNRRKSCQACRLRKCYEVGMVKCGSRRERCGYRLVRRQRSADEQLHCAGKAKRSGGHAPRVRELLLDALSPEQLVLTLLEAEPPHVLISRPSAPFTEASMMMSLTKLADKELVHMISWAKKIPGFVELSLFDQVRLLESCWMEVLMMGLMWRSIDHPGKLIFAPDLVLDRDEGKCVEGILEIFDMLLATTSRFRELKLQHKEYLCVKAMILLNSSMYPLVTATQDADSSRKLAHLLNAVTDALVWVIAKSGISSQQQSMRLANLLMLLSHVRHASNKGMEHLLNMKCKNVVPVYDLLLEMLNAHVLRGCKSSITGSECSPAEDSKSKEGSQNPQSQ

transcriptional activity (%) at most effective inhibitory concentration, ratio to that of 10 nM E2 | SMILES
6.6% | Cc1cc(C(c2ccccc2O)c2cc(C)c(O)c(C)c2C)c(C)c(C)c1O [Compound 7, 4,4′-(2-Hydroxybenzylidene)-bis(2,3,6-trimethylphenol)]
17.0% | Cc1cc(C2(c3ccc(O)c(C)c3)CCCCC2)ccc1O [Compound 9, 1,1-Bis(4-hydroxy-3-methylphenyl)cyclohexane]
6.4% | Cc1cc(C(C)(C)c2ccc(C(C)(C)c3cc(C)c(O)c(C)c3)cc2)cc(C)c1O [Compound 20, α,α′-Bis(4-hydroxy-3,5-dimethylphenyl)-1,4-diisopropylbenzene]
86.7% | Nc1cc(C(c2ccc(O)c(N)c2)(C(F)(F)F)C(F)(F)F)ccc1O [Compound 13, 2,2-Bis(3-amino-4-hydroxyphenyl)hexafluoropropane]
11.1% | CCCCC(CC)C(c1ccc(O)cc1)c1ccc(O)cc1 (centres unmarked) [Compound 6, 4,4′-(2-Ethylhexylidene)bisphenol]

Same assay, conditions: against 10 nM E2-induced ERβ activation; 100 nM, 1 μM, 10 μM

SMILES | ERβ antagonist activity (in words)
Oc1ccc(C(c2ccc(O)cc2)C(Cl)(Cl)Cl)cc1 [Compound 3, 2,2-bis(p-hydroxyphenyl)-1,1,1-trichloroethane] | antagonistic activities
Cc1cc(C(C)(C)c2ccc(C(C)(C)c3cc(C)c(O)c(C)c3)cc2)cc(C)c1O [Compound 20, α,α′-Bis(4-hydroxy-3,5-dimethylphenyl)-1,4-diisopropylbenzene] | antagonistic activity
Oc1ccc(C(c2ccc(O)cc2)(C(F)(F)F)C(F)(F)F)cc1 [Compound 4, 4,4'-(perfluoropropane-2,2-diyl)diphenol] | antagonistic activities

Same assay, conditions: at the 10 μM concentration; 10 nM E2

suppression of E2-induced activation | SMILES
90% | Cc1cc(C(c2ccccc2O)c2cc(C)c(O)c(C)c2C)c(C)c(C)c1O [Compound 7, 4,4′-(2-Hydroxybenzylidene)-bis(2,3,6-trimethylphenol)]
90% | CCCCC(CC)C(c1ccc(O)cc1)c1ccc(O)cc1 (centres unmarked) [Compound 6, 4,4′-(2-Ethylhexylidene)bisphenol]

Biological target: T1, ERβ
Experiment: Competitive binding assay with [3H]4OHT for WT ERβ
Set-up: made in house; host or cells: Escherichia coli BL21α
Conditions: [3H]4OHT radioligand
Method: (§2) After successive incubation with 100 μl of 0.4% dextran-coated charcoal (DCC) (Sigma-Aldrich) in PBS (pH 7.4) on ice for 10 min, free radioligands bound to DCC were removed using a vacuum filtration system with a 96-well filtration plate (MultiScreenHTS HV, […], Merck KGaA) for the bound/free separation. The radioactivity of each eluent was measured using a liquid scintillation counter (LS6500; Beckman Coulter) and Clear-sol I (Nacalai Tesque Inc). […] Each compound was dissolved in dimethyl sulfoxide to prepare a 1.0 mM stock solution and further diluted to prepare serial dilutions (10^−12 M to 10^−5 M) in the binding buffer. […] Bound/free separation was performed as described above, and the radioactivity was determined using a MicroBeta microplate counter (PerkinElmer Inc). The IC50 value of each test compound was calculated from the dose–response curves generated via nonlinear regression analysis using Prism software (GraphPad Software Inc).
Target sequence in this assay (Q92731 263-530): as the sequence (Q92731 263-530) above

SMILES | shape of competitive binding curve, WT ERβ
CC/C(=C(\c1ccc(O)cc1)c1ccc(OCCN(C)C)cc1)c1ccccc1 [Compound 4OHT, 4-Hydroxytamoxifen, reference compound] | biphasic curve
Oc1ccc(C(c2ccc(O)cc2)(C(F)(F)F)C(F)(F)F)cc1 [Compound 4, 4,4'-(perfluoropropane-2,2-diyl)diphenol] | biphasic binding curve

Same assay, conditions: compared with BPA

SMILES | increase of ERβ binding compared with BPA
Oc1ccc(C(c2ccc(O)cc2)(C(F)(F)F)C(F)(F)F)cc1 [Compound 4, 4,4'-(perfluoropropane-2,2-diyl)diphenol] | ~50 fold

Biological target: T1, ERβ
Experiment: Luciferase reporter gene assay in HeLa cells, agonistic activity
Assay type: cell-based
Set-up: expressed in transfected cells; host or cells: HeLa
Conditions: HeLa cells, ERE luciferase reporter; tested up to 10 µM
Method: as §1
Target sequence in this assay (Q92731 whole entry, the tested form may be a part): as the sequence (Q92731 whole entry, the tested form may be a part) above

maximum fold induction (agonistic activity on ERβ) | SMILES
1.45 | Cc1cc(C(c2ccccc2O)c2cc(C)c(O)c(C)c2C)c(C)c(C)c1O [Compound 7, 4,4′-(2-Hydroxybenzylidene)-bis(2,3,6-trimethylphenol)]
2.27 | Cc1cc(C2(c3ccc(O)c(C)c3)CCCCC2)ccc1O [Compound 9, 1,1-Bis(4-hydroxy-3-methylphenyl)cyclohexane]
0.99 | Cc1cc(C(C)(C)c2ccc(C(C)(C)c3cc(C)c(O)c(C)c3)cc2)cc(C)c1O [Compound 20, α,α′-Bis(4-hydroxy-3,5-dimethylphenyl)-1,4-diisopropylbenzene]
1.67 | Nc1cc(C(c2ccc(O)c(N)c2)(C(F)(F)F)C(F)(F)F)ccc1O [Compound 13, 2,2-Bis(3-amino-4-hydroxyphenyl)hexafluoropropane]
1.59 | CCCCC(CC)C(c1ccc(O)cc1)c1ccc(O)cc1 (centres unmarked) [Compound 6, 4,4′-(2-Ethylhexylidene)bisphenol]

Same assay, conditions: HeLa cells, WT ERβ

ERβ agonist activity (in words) | SMILES
no agonist activity | Cc1cc(C(c2ccccc2O)c2cc(C)c(O)c(C)c2C)c(C)c(C)c1O [Compound 7, 4,4′-(2-Hydroxybenzylidene)-bis(2,3,6-trimethylphenol)]
no agonist activity | Cc1cc(C(C)(C)c2ccc(C(C)(C)c3cc(C)c(O)c(C)c3)cc2)cc(C)c1O [Compound 20, α,α′-Bis(4-hydroxy-3,5-dimethylphenyl)-1,4-diisopropylbenzene]
no agonist activity | CCCCC(CC)C(c1ccc(O)cc1)c1ccc(O)cc1 (centres unmarked) [Compound 6, 4,4′-(2-Ethylhexylidene)bisphenol]

SMILES | ERβ agonist activity (in words)
Oc1ccc(C(c2ccc(O)cc2)(C(F)(F)F)C(F)(F)F)cc1 [Compound 4, 4,4'-(perfluoropropane-2,2-diyl)diphenol] | weak transcriptional activity

Tested on: ERα
Experiment: not given
Set-up: method as in PMID 31289329
Conditions: competitive binding, [3H] 17β-estradiol as radioligand; mean ± SD; read-out: Binding affinity (IC50, nM) ERα; cited from earlier work

SMILES | IC50
Cc1cc(C(c2ccccc2O)c2cc(C)c(O)c(C)c2C)c(C)c(C)c1O [Compound 7, 4,4′-(2-Hydroxybenzylidene)-bis(2,3,6-trimethylphenol)] | 12.3 ± 7.3 nM
Cc1cc(C2(c3ccc(O)c(C)c3)CCCCC2)ccc1O [Compound 9, 1,1-Bis(4-hydroxy-3-methylphenyl)cyclohexane] | 38.6 ± 7.2 nM
C[C@]12CC[C@@H]3c4ccc(O)cc4CC[C@H]3[C@@H]1CC[C@@H]2O [Compound E2, Estradiol, reference compound] | 0.88 ± 0.13 nM
CC(c1ccccc1)(c1ccc(O)cc1)c1ccc(O)cc1 [Compound 11, 4,4'-(1-phenylethane-1,1-diyl)diphenol] | 259 ± 41 nM
Cc1cc(C(C)(C)c2ccc(C(C)(C)c3cc(C)c(O)c(C)c3)cc2)cc(C)c1O [Compound 20, α,α′-Bis(4-hydroxy-3,5-dimethylphenyl)-1,4-diisopropylbenzene] | 733 ± 628 nM
Nc1cc(C(c2ccc(O)c(N)c2)(C(F)(F)F)C(F)(F)F)ccc1O [Compound 13, 2,2-Bis(3-amino-4-hydroxyphenyl)hexafluoropropane] | 334 ± 112 nM
CCCCC(CC)C(c1ccc(O)cc1)c1ccc(O)cc1 (centres unmarked) [Compound 6, 4,4′-(2-Ethylhexylidene)bisphenol] | 18.5 ± 6.7 nM

Biological target: ERβ(W335A) (Homo sapiens, UniProt Q92731, W335A)
Experiment: Competitive binding assay for ERβ(W335A)
Set-up: made in house; host or cells: Escherichia coli BL21α (described for the wild-type LBD)
Conditions: Fig. 4B
Method: as §2

Chain of ERβ(W335A) (Q92731 263-530 W335A): as the sequence (Q92731 263-530) above, with W73A counted along it

SMILES | shape of competitive binding curve, ERβ(W335A)
Oc1ccc(C(c2ccc(O)cc2)(C(F)(F)F)C(F)(F)F)cc1 [Compound 4, 4,4'-(perfluoropropane-2,2-diyl)diphenol] | biphasic binding of BPC and BPAF was lost
